Laboratory results taken from patent EP1079826B1, “USE OF INDIGOID BISINDOLE DERIVATIVES FOR THE MANUFACTURE OF A MEDICAMENT TO INHIBIT CYCLIN DEPENDENT KINASES” (CNRS, Centre National de la Recherche Scientifique, priority 1998, dated 1999).
Where two headings read alike, the source gives them in different places. Each block holds one molecule with its values, some of them ahead of it.

Legend:
CDK2/ cyclin E = CDK2/ cyclin E (Homo sapiens, UniProt P24941); assay: biochemical
CDK1/cyclin B = assay: histone H1 phosphorylation as a measure for CDK1/cyclin B activity in cell culture; format: cell-based, human; conditions: after 24 h incubation of MCF-7 mammary carcinoma cells
Text: An inhibition of p34^cdc2-kinase by indigoid bisindole derivatives is not described in the prior art.

CDK2/ cyclin A = CDK2/ cyclin A (Homo sapiens, UniProt P24941); assay: biochemical
[1] = system: MCF-7 mammary carcinoma cells; assay: cell cycle arrest in cell culture; format: cell-based, human
Protocol: (§1) An inhibition of p34^cdc2-kinase by indigoid bisindole derivatives is not described in the prior art. […] In concentrations ≥ 5 µM, an additional arrest at G2/M-phase of the cell cycle became apparent.

[2] = system: MCF-7 mammary carcinoma cells; assay: growth inhibition in cell culture; format: cell-based; conditions: Homo sapiens, MCF7, 72 h; after 3 days incubation; 50% growth inhibition as compared to vehicle control
Protocol: as §1

[3] = system: MCF-7 mammary carcinoma cells; assay: induction of apoptotic cell death in cell culture; format: cell-based, human
Protocol: as §1

p34^cdc2/cyclinB = assay: p34cdc2/cyclin B kinase assay (histone H1 phosphorylation, [γ-32P] ATP); format: biochemical, starfish (Marthasterias glacialis)
Protocol: J. Biochem., 243, (1997), 527-536). […] After 10 min. incubation at 30°C, 25 μl aliquots of supernatant were spotted onto 2.5 x 3 cm pieces of Whatman P81 phosphocellulose paper, and after 20 sec., the filters were washed five times (for at least 5 min. each time) in a solution of 10 ml phosphoric acid/liter of water. The wet filters were transferred into 6 ml plastic scintillation vials, 5 ml ACS (Amersham) scintillation fluid was added and the radioactivity measured in a Packard scintillation counter.

CDK5/ p35 = CDK5/ p35 (Homo sapiens, UniProt Q00535); assay: kinase inhibition selectivity, CDK5/p35; format: biochemical
cdc25 = cdc25 inhibition (specificity panel); format: biochemical; conditions: Table 3
CDK4/ cyclin D1 = CDK4/ cyclin D1 (Homo sapiens, UniProt P11802); assay: kinase inhibition selectivity, CDK4/cyclin D1; format: biochemical
PKC [4] = conditions: Table 1, known inhibitors; cited from earlier work
CDK1 = conditions: Table 1, known inhibitors; roscovitine value for racemic mixture; cited from earlier work
MAPK = conditions: Table 1, known inhibitors; cited from earlier work
[5] = target: epidermal growth factor receptor tyrosine kinase (Homo sapiens, UniProt P00533); conditions: Table 1, known inhibitors; read-out: IC50 Tyrosine-kinase (EGF-R); cited from earlier work
PKG = conditions: Table 1, known inhibitors; cited from earlier work
[6] = system: chronic myelogenous leukemia; conditions: cases of chronic myelogenous leukemia; cited from earlier work
[7] = compared with indirubine; cited from earlier work
PKC [8] = assay: PKC inhibition (specificity panel); format: biochemical; conditions: Ca2+-dependent protein kinase, Table 3
[9] = cells arrested by serum deprivation, treatment for 24 h in serum containing medium
[10] = calculated from dose response curves, Table 4, read-out: IC50 CDK1/ cyclin B
[11] = cdc2 kinase, Table 3, read-out: IC50 cdc2
[12] = calculated from dose response curves, Table 4, read-out: IC50 CDK5/ p35

Chain of CDK5/ p35 (Q00535 whole entry, species assumed): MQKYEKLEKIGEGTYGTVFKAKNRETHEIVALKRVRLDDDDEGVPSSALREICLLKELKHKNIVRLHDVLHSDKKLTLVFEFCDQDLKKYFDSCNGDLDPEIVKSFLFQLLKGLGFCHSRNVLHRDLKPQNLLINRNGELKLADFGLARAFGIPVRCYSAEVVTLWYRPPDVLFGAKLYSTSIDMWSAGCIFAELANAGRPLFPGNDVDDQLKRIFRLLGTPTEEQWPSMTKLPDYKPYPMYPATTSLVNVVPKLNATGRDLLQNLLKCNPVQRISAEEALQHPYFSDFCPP
Chain of CDK5/ p35 (Q15078 whole entry partner, species assumed): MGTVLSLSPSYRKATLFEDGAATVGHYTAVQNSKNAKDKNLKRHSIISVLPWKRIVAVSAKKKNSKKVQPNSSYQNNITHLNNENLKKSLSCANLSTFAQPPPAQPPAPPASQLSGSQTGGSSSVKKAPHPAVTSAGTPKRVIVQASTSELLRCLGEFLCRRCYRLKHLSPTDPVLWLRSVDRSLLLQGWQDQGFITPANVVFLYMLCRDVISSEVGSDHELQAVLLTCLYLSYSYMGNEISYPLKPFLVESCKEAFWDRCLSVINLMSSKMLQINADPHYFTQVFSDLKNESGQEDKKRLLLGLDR
Chain of CDK4/ cyclin D1 (P11802 whole entry, species assumed): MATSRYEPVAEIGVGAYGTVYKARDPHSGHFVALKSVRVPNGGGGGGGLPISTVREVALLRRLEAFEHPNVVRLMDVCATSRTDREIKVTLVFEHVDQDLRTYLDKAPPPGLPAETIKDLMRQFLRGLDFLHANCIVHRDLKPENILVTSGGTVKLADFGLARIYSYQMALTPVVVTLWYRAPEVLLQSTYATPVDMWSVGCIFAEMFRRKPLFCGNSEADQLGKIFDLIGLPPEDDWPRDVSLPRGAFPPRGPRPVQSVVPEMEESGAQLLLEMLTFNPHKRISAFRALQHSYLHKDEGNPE
Chain of CDK4/ cyclin D1 (P24385 whole entry partner, species assumed): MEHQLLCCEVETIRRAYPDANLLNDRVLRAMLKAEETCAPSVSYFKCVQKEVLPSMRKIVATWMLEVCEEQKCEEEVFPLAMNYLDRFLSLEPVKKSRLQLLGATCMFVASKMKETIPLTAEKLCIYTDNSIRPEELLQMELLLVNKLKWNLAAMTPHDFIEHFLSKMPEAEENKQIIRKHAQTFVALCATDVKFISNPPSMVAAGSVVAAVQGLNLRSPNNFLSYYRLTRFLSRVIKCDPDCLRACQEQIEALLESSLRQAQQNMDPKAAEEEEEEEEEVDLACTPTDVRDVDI
Chain of epidermal growth factor receptor tyrosine kinase (P00533 25-1210): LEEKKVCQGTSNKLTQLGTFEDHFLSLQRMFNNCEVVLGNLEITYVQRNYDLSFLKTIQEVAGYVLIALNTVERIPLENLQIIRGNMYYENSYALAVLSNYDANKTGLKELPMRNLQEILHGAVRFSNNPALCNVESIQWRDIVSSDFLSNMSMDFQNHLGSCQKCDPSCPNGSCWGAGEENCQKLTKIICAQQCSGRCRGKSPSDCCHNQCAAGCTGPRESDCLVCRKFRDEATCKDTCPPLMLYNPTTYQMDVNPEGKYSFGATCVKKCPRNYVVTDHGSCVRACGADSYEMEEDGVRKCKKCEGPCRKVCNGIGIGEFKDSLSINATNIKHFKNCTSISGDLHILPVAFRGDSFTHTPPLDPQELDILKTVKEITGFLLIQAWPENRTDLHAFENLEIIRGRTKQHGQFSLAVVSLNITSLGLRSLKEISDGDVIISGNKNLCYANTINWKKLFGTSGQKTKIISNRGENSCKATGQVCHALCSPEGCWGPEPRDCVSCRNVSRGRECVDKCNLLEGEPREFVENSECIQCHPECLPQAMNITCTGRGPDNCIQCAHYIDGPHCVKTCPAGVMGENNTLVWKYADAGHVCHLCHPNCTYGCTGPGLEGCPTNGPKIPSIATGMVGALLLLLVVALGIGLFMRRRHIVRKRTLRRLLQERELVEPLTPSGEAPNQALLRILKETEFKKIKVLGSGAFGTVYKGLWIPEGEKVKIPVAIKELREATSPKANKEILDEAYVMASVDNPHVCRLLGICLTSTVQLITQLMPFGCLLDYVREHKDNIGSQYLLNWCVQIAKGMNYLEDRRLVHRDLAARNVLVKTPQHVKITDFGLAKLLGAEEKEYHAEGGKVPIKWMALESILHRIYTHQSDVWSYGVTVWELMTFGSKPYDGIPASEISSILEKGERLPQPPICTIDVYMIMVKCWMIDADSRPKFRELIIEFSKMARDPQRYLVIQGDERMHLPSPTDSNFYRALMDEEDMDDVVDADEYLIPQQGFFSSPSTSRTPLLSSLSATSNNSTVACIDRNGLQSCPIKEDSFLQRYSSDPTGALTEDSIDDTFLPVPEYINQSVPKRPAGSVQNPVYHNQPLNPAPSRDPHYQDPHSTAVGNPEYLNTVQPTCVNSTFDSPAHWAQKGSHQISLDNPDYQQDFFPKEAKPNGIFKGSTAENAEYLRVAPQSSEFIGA

SMILES: O=C1Nc2ccccc2C1=C1Nc2ccccc2C1=NO [Example 10, Indirubine-3'-oxime]
IC50 (CDK2/ cyclin E): 0.25 µM
content of cyclin B complex (CDK1/cyclin B): significantly reduced
histone H1 phosphorylation as a measure for CDK1/cyclin B activity (CDK1/cyclin B): inhibit histone H1 phosphorylation
IC50 (CDK2/ cyclin A): 0.44 µM
arrest in G1-phase of the cell cycle [1, 9]: low micromolar concentrations
concentration at which additional arrest at G2/M-phase of the cell cycle became apparent [1, 9]: ≥ 5 µM
concentration giving significant increase of G2/M arrested cells ([1]; cells arrested in G2/M by Nocodazole treatment, after release of the block): ≥ 5 µM
IC50 [2]: 3.3 ± 0.7 µM
apoptotic cell death [3]: induction of apoptotic cell death was observed

SMILES: O=C1Nc2ccc(Cl)cc2/C1=C1/Nc2ccccc2C1=O [Example 4, 5-Chloroindirubine]
IC50 (p34^cdc2/cyclinB; [10]): 0.4 µM
IC50 (p34^cdc2/cyclinB; [11]): 0.4 µM
IC50 (CDK2/ cyclin E): 0.55 µM
IC50 (CDK5/ p35): 0.8 µM
IC50 (CDK2/ cyclin A): 0.75 µM
IC50 (cdc25): 55 µM
IC50 (CDK4/ cyclin D1): 6.5 µM

IC50 (p34^cdc2/cyclinB; [11]): 7 µM
SMILES: O=C1Nc2ccc(Br)cc2/C1=C1/Nc2ccc(Br)cc2C1=O [Example 9, 5,5'-Dibromoindirubine]

IC50 (p34^cdc2/cyclinB; read-out: IC50-value for the p34^cdc2/cyclinB complex): 80 µM
SMILES: O=C1Nc2ccccc2/C1=C1\C(=O)Nc2ccccc21 [Example 12, Isoindigo]

SMILES: CN[C@@H]1C[C@H]2O[C@@](C)([C@@H]1OC)n1c3ccccc3c3c4c(c5c6ccccc6n2c5c31)C(=O)N[C@@H]4O [UCN-01]
IC50 (CDK1): 0.031 µM

SMILES: Cc1c2ccncc2c(C)c2c1[nH]c1ccc(O)cc12 [9-Hydroxy-ellipticine, 9-Hydroxyellipticin]
IC50 (CDK1): ~1 µM

SMILES: COC(=O)C1(Cc2ccc(O)c(CC=C(C)C)c2)OC(=O)C(O)=C1c1ccc(O)cc1 (stereo not drawn) [Butyro-lactone-I, Butyrolactone-I]
IC50 (MAPK): 94 µM
IC50 (PKC [4]): 160 µM
IC50 [5]: > 590 µM

SMILES: CN[C@@H]1C[C@H]2O[C@@](C)([C@@H]1OC)n1c3ccccc3c3c4c(c5c6ccccc6n2c5c31)C(=O)NC4 [Staurosporine]
IC50 (PKG): 0.009 µM

IC50 (p34^cdc2/cyclinB; [11]): 0.35 µM
IC50 (cdc25): 32 µM
SMILES: O=C1Nc2ccc(Br)cc2/C1=C1/Nc2ccccc2C1=O [Example 3, 5-Bromoindirubine]

SMILES: O=C1Nc2ccc(F)cc2/C1=C1/Nc2ccccc2C1=O [Example 5, 5-Fluoroindirubine]
IC50 (p34^cdc2/cyclinB; [11]): 2 µM
IC50 (cdc25): 70 µM

SMILES: Cc1ccc2c(c1)C(=C1Nc3ccccc3C1=O)C(=O)N2 [Example 6, 5-Methylindirubine]
IC50 (p34^cdc2/cyclinB; [11]): 0.8 µM
IC50 (cdc25): 60 µM

SMILES: CN1C(=O)/C(=C2/C(=O)Nc3ccccc32)c2ccccc21 [meisoindigo, N-Methyl-isoindigo]
complete and partial remission rate [6]: 81.3%
total response rate [6]: 90.1%

IC50 (p34^cdc2/cyclinB; [11]): 2.2 µM
IC50 (cdc25): 60 µM
SMILES: O=C1Nc2ccc([N+](=O)[O-])cc2/C1=C1/Nc2ccccc2C1=O [Example 7, 5-Nitroindirubine]

IC50 (p34^cdc2/cyclinB; [11]): 6.5 µM
SMILES: O=C1Nc2ccccc2/C1=C1/Nc2ccc(Br)cc2C1=O [Example 8, 5'-Bromoindirubine]

SMILES: O=C1Nc2ccc(I)cc2/C1=C1/Nc2ccccc2C1=O [Example 2, 5-Iodoindirubine]
IC50 (p34^cdc2/cyclinB; [11]): 0.3 µM
antitumor activity [7]: superior to that of indirubine
IC50 (cdc25): 130 µM
IC50 PKC (PKC [8]): no Effect

IC50 (p34^cdc2/cyclinB; [10]): 0.055 µM
IC50 (p34^cdc2/cyclinB; [11]): 0.055 µM
IC50 (CDK5/ p35; [12]): 0.065 µM
IC50 (cdc25): 110 µM
SMILES: O=C1Nc2ccc(S(=O)(=O)O)cc2C1=C1Nc2ccccc2C1=O [Example 11, Indirubine-5-sulfonic acid]

IC50 (p34^cdc2/cyclinB; [10]): > 1000 µM
IC50 (CDK2/ cyclin E): > 1000 µM
IC50 (CDK5/ p35; [12]): > 100 µM
IC50 (CDK2/ cyclin A): 70 µM
IC50 (CDK4/ cyclin D1; calculated from dose response curves, Table 4, read-out: IC50 CDK4/ cyclin D1): > 100 µM
SMILES: O=C1/C(=C2\Nc3ccccc3C2=O)Nc2ccccc21 [indigo]

SMILES: CN1CC[C@H](c2c(O)cc(O)c3c(=O)cc(-c4ccccc4Cl)oc23)[C@H](O)C1 [Flavopiridol]
IC50 (PKG): 6 µM
